Test results from publication PMC6039436, “Radiobrominated benzimidazole-quinoline derivatives as Platelet-derived growth factor receptor beta (PDGFRβ) imaging probes” (Scientific Reports, 2018).
Marks after values point to notes of the source that are not given here.

Legend:
[1] = test system: PDGFRβ overexpressed TR-PCT1 cells; assay: Cell viability assay (WST-8 / Cell Counting Kit-8); format: cell-based, rat; conditions: 1–1000 nM, 72 h, 20 ng/mL PDGF-BB, compared with 1
Procedure: The binding affinity of 2 and 3 to the ATP-binding site in PDGFRβ was evaluated using PDGFRβ overexpressed TR-PCT1 cells. Cells were treated with 1–1000 nM of synthesized ligands, 1, 2, or 3.
Figure 4 Cell viability after exposure 1, 2, and 3 by WST-8 assay. Data were presented as mean ± SD for three samples. Significance was determined using a one-way ANOVA followed by Tukey’s post hoc test (^*p < 0.01, ^**p < 0.001).
The cell viability assay of brominated compounds, 2 and 3, was evaluated as described previously[24],[27]. Namely, TR-PCT1 cells were seeded on 96-well plates (5 × 10^3 cells/well) and cultured at 33 °C in DMEM medium with 20 ng/mL PDGF-BB and 2% FBS in a 5% CO2 incubator. Cells were treated with each compound for 72 h and cell viability was determined by the Cell Counting Kit-8.

PDGFRβ (BxPC3-luc cells) = target: T1, PDGFRβ (BxPC3-luc cells) (Homo sapiens, UniProt P09619); assay: Competitive binding assay of [^125I]4 with BxPC3-luc cells; conditions: displacement of [^125I]4, BxPC3-luc cells, 37 °C, 4 h
T1 construct: host or cells: BxPC3-luc cells
T1 sequence (P09619 33-1106): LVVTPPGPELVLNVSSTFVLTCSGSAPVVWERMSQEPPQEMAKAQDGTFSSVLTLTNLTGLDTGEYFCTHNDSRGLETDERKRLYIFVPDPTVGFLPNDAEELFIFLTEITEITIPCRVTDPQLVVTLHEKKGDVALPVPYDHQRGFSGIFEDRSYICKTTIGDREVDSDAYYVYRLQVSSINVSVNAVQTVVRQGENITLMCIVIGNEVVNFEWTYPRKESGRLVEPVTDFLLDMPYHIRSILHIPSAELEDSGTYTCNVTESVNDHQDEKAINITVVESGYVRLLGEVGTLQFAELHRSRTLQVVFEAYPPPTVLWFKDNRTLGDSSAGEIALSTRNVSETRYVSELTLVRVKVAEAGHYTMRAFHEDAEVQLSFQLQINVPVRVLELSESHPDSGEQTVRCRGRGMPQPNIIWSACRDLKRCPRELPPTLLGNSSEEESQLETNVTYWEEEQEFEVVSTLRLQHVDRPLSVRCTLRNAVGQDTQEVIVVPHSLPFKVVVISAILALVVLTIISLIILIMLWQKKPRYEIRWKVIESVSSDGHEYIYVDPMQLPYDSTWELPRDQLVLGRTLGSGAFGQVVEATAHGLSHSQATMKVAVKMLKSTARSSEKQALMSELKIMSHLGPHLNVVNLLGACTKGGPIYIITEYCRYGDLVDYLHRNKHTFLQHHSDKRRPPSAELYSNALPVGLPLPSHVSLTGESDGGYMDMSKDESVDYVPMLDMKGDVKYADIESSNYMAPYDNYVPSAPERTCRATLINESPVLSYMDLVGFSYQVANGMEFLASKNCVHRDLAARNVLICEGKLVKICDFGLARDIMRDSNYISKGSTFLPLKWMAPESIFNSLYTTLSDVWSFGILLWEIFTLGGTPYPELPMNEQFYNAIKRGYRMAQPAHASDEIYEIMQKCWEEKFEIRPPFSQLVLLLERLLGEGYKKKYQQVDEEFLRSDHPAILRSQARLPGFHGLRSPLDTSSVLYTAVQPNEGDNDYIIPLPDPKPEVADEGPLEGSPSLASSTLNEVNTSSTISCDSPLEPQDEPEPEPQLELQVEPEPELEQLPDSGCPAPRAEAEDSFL
Procedure: We investigated the competitive binding of [^125I]4 to BxPC3-luc cells with PDGFRβ ligand, 1, 2, and 3.
BxPC3-luc cells in medium containing 10% FBS and antibiotics were seeded on 24-well plates (50,000 cells/wells) and incubated for 24 h in a 5% CO2 incubator at 37 °C. Nine concentrations of displacing nonradiolabeled ligands (1, 2 and 3) (ranging from 1 pM to 1 mM) and [^125I]4 in medium without FBS were incubated at 37 °C for 4 h. After washing the cells twice using 250 µL of ice-cold PBS, the unbound radioligand was removed. The cells were dissolved using 250 µL of 1 M NaOH and wells were washed with 250 µL of 1 M NaOH. The bound radioactivity was determined using a gamma counter.
All data were statisticaly analyzed using GraphPad 5.0 software (La Jolla, CA, USA) and expressed as mean ± standard deviation (SD). Significance for in vitro blocking experiments was determined by a one-way analysis of variance (ANOVA) followed by Dunnett’s post hoc test compared to the control group. Significance in cell viability assays was determined by ANOVA followed by Tukey’s post hoc test. IC50 values for the binding assay were calculated by nonlinear regression. Significant differences in biodistribution experiments between [^77Br]2 and [^77Br]3 groups were determined using unpaired Student’s t-test. Significance for in vivo blocking studies between control and blocking groups were determined by unpaired Student’s t-test. Results were considered statistically significant at p < 0.05.

RXF393 xenograft = test system: RXF393 xenograft; design: method as in PMID 23522977; conditions: RXF393 xenograft mice; cited from earlier work
[2] = test system: BxPC3-luc cells (PDGFRβ-positive); assay: Cellular uptake study (double tracer method); format: cell-based; conditions: BxPC3-luc (PDGFRβ-positive) vs MCF7 (PDGFRβ-negative), 0.5–4 h
Procedure: Figure 5 Cellular uptake study. Time-dependent accumulation of (a) [^77Br]2 and [^125I]4 (b) [^77Br]3 and [^125I]5 in BxPC3-luc and MCF7 cells. Data were presented as mean ± SD for three samples.
Radiotracer uptake experiments in tumor cells were performed using BxPC3-luc and MCF7 cell lines. To compare the uptake between radiobrominated compounds, [^77Br]2 and [^77Br]3, and the corresponding radioiodinated compounds, [^125I]4 and [^125I]5, the cellular uptake experiments were performed by a double tracer method as described previously with a slight modification[30],[31],[35]. Briefly, the cells were seeded in RPMI 1640 medium containing 10% FBS and antibiotics on six-well plates (2 × 10^5 cells/well) for 24 h in a 5% CO2 incubator at 37 °C. After removal of medium, cells were incubated in medium without FBS containing [^77Br]2 (3.7 kBq/well) and [^125I]4 (3.7 kBq/well) or [^77Br]3 (3.7 kBq/well) and [^125I]5 (3.7 kBq/well) and tween-80 (0.1%) for 0.5, 1, 2 and 4 h. Radioiodinated compounds were prepared as described previously][24]. Cells were washed with ice-cold 1 mL of PBS and dissolved using 0.5 mL of 1 M NaOH and wells were washed with 1 M NaOH aqueous solution (0.5 mL). The radioactivity of pooled basic fractions was counted by a gamma counter. A range between 16 and 71 keV was used for measuring ^125I and between 95 and 700 for ^77Br. When radioactivity of ^77Br was counted, the crossover of ^125I activity into the ^77Br channel was negligible. More than one month after the experiment, the radioactivity of ^125I was determined because at that time ^77Br has been decayed and its radioactivity was negligible. The protein in the cell was quantified by a BCA Protein Assay Kit. All data were expressed as %dose/µg protein.

[3] = Biodistribution in ddY mice; format: in vivo; conditions: i.v. co-injection
Procedure: In this study, to minimize both the number of mice consumed in the experiment and the potential for experimental errors, we co-injected radiobrominated and radioiodinated compounds into mice[30],[31]. High radioactivity in the liver, small intestine, and large intestine was observed.
(§1) Mice were intravenously injected via the tail with 100 µL of saline solution of [^77Br]2 and [^125I]4 or [^77Br]3 and [^125I]5 (74 kBq, respectively), containing 10% ethanol and 1% tween-80. The ddY mice were sacrificed at 10 min, 1, 4, and 24 h postinjection. Meanwhile, tumor-bearing mice were sacrificed at 1 h postinjection.
(§2) Tissues in mice were resected and weighed. The radioactivity of the tissues was counted by a gamma counter and counts were corrected for background radiation. The data were expressed as percent injection dose per gram tissue (%ID/g).

BxPC3-luc tumor = assay: Biodistribution in BxPC3-luc tumor-bearing mice; format: in vivo, BALB/c nu/nu mice
Procedure: We investigated the biodistribution of the radiotracers in BxPC3-luc tumor-bearing mice by co-injecting [^77Br]2 with [^125I]4 (Table 3), and [^77Br]3 with [^125I]5 (Table 4).
Animal experiments were conducted in strict accordance with the Guidelines for the Care and Use of Laboratory Animals of Kanazawa University. The animal experimental protocols used were approved by the Committee on Animal Experimentation of Kanazawa University (Permit Number: AP-163766). The animals were housed with free access to food and water at approximately 23 °C with a 12 h light/dark schedule. ddY mice (six-week-old, male, 27–30 g) and BALB/c nu/nu mice (four-week-old, female, 12–17 g) were purchased from Japan SLC Inc. (Hamamatsu, Japan). For preparing the tumor-bearing mice, BxPC3-luc cells (5 × 10^6 cells) were subcutaneously injected into the left shoulder of BALB/c nu/nu mice. The tumor reached palpable size after two weeks of the inoculation.
as §1, §2

[4] = design: method as in PMID 28838832; conditions: radioiodinated compounds; cited from earlier work

COCCOc1ccc2c(c1)ncn2-c1ccc2c(Br)ccc(N3CCC(N)CC3)c2n1 [Compound 2, 1-{5-bromo-2-[5-(2-methoxyethoxy)-1H-benzo[d]imidazol-1-yl]quinolin-8-yl}piperidin-4-amine]
Cell viability of TR-PCT1 cells [1]: more effective in decreasing the viability of TR-PCT1 cells than 1
IC50 (PDGFRβ (BxPC3-luc cells)): 56 ± 13 nM

CNC(=O)c1cc(Oc2ccc(NC(=O)Nc3ccc(Cl)c(C(F)(F)F)c3)cc2)ccn1 [^11C-labeled sorafenib, sorafenib]
Tumor uptake (RXF393 xenograft): about 2.52 ± 0.33 %ID/g

COCCOc1ccc2c(c1)ncn2-c1ccc2c([125I])ccc(N3CCC(N)CC3)c2n1 [[^125I]4, [^125I]1-{5-iodo-2-[5-(2-methoxyethoxy)-1H-benzo[d]imidazol-1-yl]quinolin-8-yl}piperidin-4-amine, reference compound]
Cellular uptake in BxPC3-luc cells [2]: higher than that in MCF7 cells
Radioactivity in Blood ([3]; 10 min): 1.15 (0.08)^* %injected dose/gram tissue
Radioactivity in Bone ([3]; 10 min): 1.53 (0.14) %injected dose/gram tissue
Radioactivity in Brain ([3]; 10 min): 0.07 (0.00)^** %injected dose/gram tissue
Radioactivity in Heart ([3]; 10 min): 4.27 (0.27) %injected dose/gram tissue
Radioactivity in Kidney ([3]; 10 min): 14.44 (1.31) %injected dose/gram tissue
Radioactivity in Large intestine ([3]; 10 min): 0.80 (0.07)^* %injected dose/gram tissue
Radioactivity in Liver ([3]; 10 min): 11.59 (0.69) %injected dose/gram tissue
Radioactivity in Lung ([3]; 10 min): 9.64 (0.66)^* %injected dose/gram tissue
Radioactivity in Muscle ([3]; 10 min): 1.92 (0.18) %injected dose/gram tissue
Radioactivity in Pancreas ([3]; 10 min): 3.52 (0.33)^* %injected dose/gram tissue
Radioactivity in Small intestine ([3]; 10 min): 9.32 (2.30) %injected dose/gram tissue
Radioactivity in Spleen ([3]; 10 min): 5.08 (0.56) %injected dose/gram tissue
Radioactivity in Stomach ([3]; 10 min): 1.66 (0.11) %injected dose /organ
Radioactivity in Blood ([3]; 1 h): 0.32 (0.09) %injected dose/gram tissue
Radioactivity in Bone ([3]; 1 h): 1.22 (0.29) %injected dose/gram tissue
Radioactivity in Brain ([3]; 1 h): 0.15 (0.04) %injected dose/gram tissue
Radioactivity in Heart ([3]; 1 h): 1.23 (0.49) %injected dose/gram tissue
Radioactivity in Kidney ([3]; 1 h): 8.18 (2.71) %injected dose/gram tissue
Radioactivity in Large intestine ([3]; 1 h): 2.16 (0.54) %injected dose/gram tissue
Radioactivity in Liver ([3]; 1 h): 3.72 (1.18) %injected dose/gram tissue
Radioactivity in Lung ([3]; 1 h): 3.88 (0.72) %injected dose/gram tissue
Radioactivity in Muscle ([3]; 1 h): 0.78 (0.11) %injected dose/gram tissue
Radioactivity in Pancreas ([3]; 1 h): 2.49 (0.63) %injected dose/gram tissue
Radioactivity in Small intestine ([3]; 1 h): 25.44 (6.86) %injected dose/gram tissue
Radioactivity in Spleen ([3]; 1 h): 1.67 (0.41) %injected dose/gram tissue
Radioactivity in Stomach ([3]; 1 h): 1.76 (0.58) %injected dose /organ
Radioactivity in Blood ([3]; 4 h): 0.19 (0.05) %injected dose/gram tissue
Radioactivity in Bone ([3]; 4 h): 0.32 (0.08) %injected dose/gram tissue
Radioactivity in Brain ([3]; 4 h): 0.03 (0.00)^** %injected dose/gram tissue
Radioactivity in Heart ([3]; 4 h): 0.31 (0.05)^* %injected dose/gram tissue
Radioactivity in Kidney ([3]; 4 h): 4.28 (0.68) %injected dose/gram tissue
Radioactivity in Large intestine ([3]; 4 h): 51.43 (8.57) %injected dose/gram tissue
Radioactivity in Liver ([3]; 4 h): 3.45 (1.02) %injected dose/gram tissue
Radioactivity in Lung ([3]; 4 h): 2.18 (0.55) %injected dose/gram tissue
Radioactivity in Muscle ([3]; 4 h): 0.23 (0.06)^** %injected dose/gram tissue
Radioactivity in Pancreas ([3]; 4 h): 1.27 (0.11)^* %injected dose/gram tissue
Radioactivity in Small intestine ([3]; 4 h): 4.98 (0.89) %injected dose/gram tissue
Radioactivity in Spleen ([3]; 4 h): 0.43 (0.11) %injected dose/gram tissue
Radioactivity in Stomach ([3]; 4 h): 0.85 (0.21) %injected dose /organ
Radioactivity in Blood ([3]; 24 h): 0.03 (0.00)^** %injected dose/gram tissue
Radioactivity in Bone ([3]; 24 h): 0.15 (0.05)^** %injected dose/gram tissue
Radioactivity in Brain ([3]; 24 h): 0.02 (0.00)^** %injected dose/gram tissue
Radioactivity in Heart ([3]; 24 h): 0.10 (0.09)^** %injected dose/gram tissue
Radioactivity in Kidney ([3]; 24 h): 0.13 (0.03) %injected dose/gram tissue
Radioactivity in Large intestine ([3]; 24 h): 0.14 (0.02) %injected dose/gram tissue
Radioactivity in Liver ([3]; 24 h): 0.29 (0.08) %injected dose/gram tissue
Radioactivity in Lung ([3]; 24 h): 0.15 (0.08)^* %injected dose/gram tissue
Radioactivity in Muscle ([3]; 24 h): 0.04 (0.01)^** %injected dose/gram tissue
Radioactivity in Pancreas ([3]; 24 h): 0.07 (0.02) %injected dose/gram tissue
Radioactivity in Small intestine ([3]; 24 h): 0.04 (0.00)^** %injected dose/gram tissue
Radioactivity in Spleen ([3]; 24 h): 0.11 (0.09)^* %injected dose/gram tissue
Radioactivity in Stomach ([3]; 24 h): 0.05 (0.00)^** %injected dose /organ
Tumor-to-blood ratio of radioactivity (BxPC3-luc tumor; 1 h postinjection): 1.9
Radioactivity in Blood (BxPC3-luc tumor; i.v. co-injection, 1 h): 0.63 (0.05) %injected dose/gram of tissue
Radioactivity in Bone (BxPC3-luc tumor; i.v. co-injection, 1 h): 0.83 (0.10)^* %injected dose/gram of tissue
Radioactivity in Brain (BxPC3-luc tumor; i.v. co-injection, 1 h): 0.07 (0.00) %injected dose/gram of tissue
Radioactivity in BxPC3-luc tumor (BxPC3-luc tumor; i.v. co-injection, 1 h): 1.19 (0.06)^* %injected dose/gram of tissue
Radioactivity in Heart (BxPC3-luc tumor; i.v. co-injection, 1 h): 1.51 (0.40) %injected dose/gram of tissue
Radioactivity in Kidney (BxPC3-luc tumor; i.v. co-injection, 1 h): 15.56 (3.61) %injected dose/gram of tissue
Radioactivity in Large intestine (BxPC3-luc tumor; i.v. co-injection, 1 h): 2.46 (0.35) %injected dose/gram of tissue
Radioactivity in Liver (BxPC3-luc tumor; i.v. co-injection, 1 h): 11.02 (0.73) %injected dose/gram of tissue
Radioactivity in Lung (BxPC3-luc tumor; i.v. co-injection, 1 h): 9.14 (2.14) %injected dose/gram of tissue
Radioactivity in Muscle (BxPC3-luc tumor; i.v. co-injection, 1 h): 0.79 (0.10) %injected dose/gram of tissue
Radioactivity in Pancreas (BxPC3-luc tumor; i.v. co-injection, 1 h): 5.48 (0.93) %injected dose/gram of tissue
Radioactivity in Small intestine (BxPC3-luc tumor; i.v. co-injection, 1 h): 47.01 (5.56) %injected dose/gram of tissue
Radioactivity in Spleen (BxPC3-luc tumor; i.v. co-injection, 1 h): 2.76 (0.73) %injected dose/gram of tissue
Radioactivity in Stomach (BxPC3-luc tumor; i.v. co-injection, 1 h): 0.97 (0.19) %injected dose /organ
n-octanol/phosphate buffer partition coefficient (log P) [4]: 2.71 ± 0.03
